Reference: PMC6268528, “3-Phenylcoumarins as Inhibitors of HIV-1 Replication” (Molecules, 2012)
Like-named read-outs stand apart in the source and are kept apart here.

Legend:
HIV-1 [1] = test: Recombinant virus (RV) assay, luciferase reporter virus on MT-2 cells; format: cell-based; conditions: for rank as inhibitor of HIV replication, in words: RV assay; for fold lesser potent than 11 in the RV assay: relative to compound 11
Protocol: We have synthesized fourteen 3-phenylcoumarin derivatives and evaluated their anti-HIV activity. Antiviral activity was assessed on MT-2 cells infected with viral clones carrying the luciferase gene as reporter. Inhibition of HIV transcription and Tat function were tested on cells stably transfected with the HIV-LTR and Tat protein. […] The antiviral effect of the 4-hydroxycoumarin derivative 19 correlates with its specific inhibition of Tat functions, while compound 8, 3-(2-chlorophenyl)coumarin, seems to act through a mechanism unrelated to the molecular targets considered in this research.
(§1) In the characterization of anti-HIV activity, the effect of these coumarins on Tat and NF-κB functions has been evaluated in a similar manner as we described in a previous publication. We have used two transfected 5.1 cell lines, in which we measured NF-κB activation induced by TNFα [42] and HeLa-Tat-Luc cells, in which the HIV-1 LTR is directly activated by the HIV-1 Tat protein. Most of the compounds were submitted for further evaluation through a HeLa-Tet-ON assay in order to determine the selectivity of their action. To avoid missing compounds acting through another mechanism, all substances were also evaluated using a recombinant virus (RV) assay. In this system, a luciferase reporter gene was cloned in full-length infectious DNA. As a result, the measured luciferase activity is therefore proportional to viral replication.
(§2) The anti-HIV activity of these coumarins on Tat and NF-κB functions has been analysed. To this aim, we have used two stably transfected cell lines. The previously described 5.1 cell line is a Jurkat-derived clone stably transfected with a plasmid containing the luciferase gene under the control of HIV-LTR. In this cell clone, activation with TNFα induces NF-κB activation and subsequent HIV-1 expression. We have also analyzed the anti-HIV activity in HeLa-Tat-Luc cells, in which the HIV-1 LTR is directly activated by the HIV-1 Tat protein. A compound was considered active in one assay if it inhibited the target function by more than 50% (NF-κB) or 30% (Tat) at either 25 or 50 μM concentration. The active compounds were submitted for further evaluation through a HeLa-Tet-ON assay, as previously described. In the Hela-Tet-ON cells the luciferase expression is under control of an artificial promoter that can be activated by tetracycline. Therefore, compounds that inhibit tetracycline-induced luciferase activity were considered non-specific for luciferase-based anti-HIV assays and were not examined further, and those showing specific activity (non-inhibitors in HeLa-Tet-ON cells) were analysed using a recombinant virus (RV) assay. […] In this system, a luciferase reporter gene has been cloned in full-length infectious DNA. The measured luciferase activity is therefore directly proportional to the replication of the virus. This assay is more sensitive and reliable than classic infectious assays. Cell viability was evaluated in non-infected treated cultures following the same protocol as in the recombinant virus assay and measuring cell toxicity with a classical MTT assay. IC50 and CC50 were calculated using GraphPad Prism software [non-linear regression, log (inhibitor) vs. response].

non-infected MT-2 cells [2] = test: Cell viability, MTT assay in non-infected treated cultures; format: cell-based; design: Toxicity (%) CC50: unit not given here
Text: as §2

NF-κB [3] = test: 5.1 cell line + TNFα, HIV-LTR luciferase (NF-κB activation); format: cell-based; conditions: for inhibition at 50 µM: read-out: Antiviral activity 5.1 + TNFα 50 µM (inhibition of NF-κB function); for inhibition at 25 µM: read-out: Antiviral activity 5.1 + TNFα 25 µM (inhibition of NF-κB function); for specificity of NF-κB inhibition, in words: with HeLa-Tet-ON evaluation
Text: as §1, §2

HIV-1 Tat protein [4] = test: HeLa-Tat-Luc cells, HIV-1 LTR activated by Tat; format: cell-based; conditions: for inhibition at 25 µM: Human immunodeficiency virus 1, read-out: Antiviral activity Hela-Tat-luc 25 µM (inhibition of Tat function); for inhibition at 50 µM: Human immunodeficiency virus 1, read-out: Antiviral activity Hela-Tat-luc 50 µM (inhibition of Tat function); for anti-Tat activity and specificity, in words: HeLa-Tat-Luc and Hela-Tet-ON assays
Text: as §1, §2

[5] = system: tetracycline-induced luciferase activity in HeLa-Tet-ON cells; test: HeLa-Tet-ON specificity assay; format: cell-based; design: key: S: specific; U: unspecific modes of action
Text: as §1, §2

HIV-1 [6] = system: HIV-1; design: method as in PMID 15911030; conditions: comparison data; read-out: RV (VIH) IC50; cited from earlier work
NF-κB [7] = system: NF-κB; design: method as in PMID 15911030; conditions: comparison data, cited from earlier work
non-infected MT-2 cells [8] = system: non-infected MT-2 cells; design: method as in PMID 15911030; conditions: comparison data; read-out: Toxicity CC50; cited from earlier work
HIV-1 Tat protein [9] = system: HIV-1 Tat protein; design: method as in PMID 15911030; conditions: comparison data; cited from earlier work
[10] = system: tetracycline-induced luciferase activity in HeLa-Tet-ON cells; design: method as in PMID 15911030; key: S: specific; U: unspecific modes of action; conditions: comparison data; cited from earlier work
[11] = Human immunodeficiency virus 1, MT2, read-out: RV (VIH) IC50

Structure (SMILES)	inhibition at 50 µM (NF-κB [3]) [%]	IC50 (HIV-1 [1]; [11]) [µM]	Toxicity (%) CC50 (non-infected MT-2 cells [2]; MTT, non-infected cultures)	inhibition at 25 µM (HIV-1 Tat protein [4]) [%]	inhibition at 50 µM (HIV-1 Tat protein [4]) [%]	HeLa-Tet-ON 50 µM (specific / unspecific mode of action) [5]	melting point [°C]	inhibitory activity in the NF-κB test, in words (NF-κB [3]; 50 µM)	other results
Cc1cn([C@H]2C[C@H](N=[N+]=[N-])[C@@H](CO)O2)c(=O)[nH]c1=O [AZT, reference compound]	–	–	–	–	–	–	–	–	IC50 (HIV-1 [1]; recombinant virus, luciferase, read-out: RV (VIH) IC50): 0.01 µM; CC50 (non-infected MT-2 cells [2]; comparison drug, read-out: Toxicity CC50): > 1 µM
O=c1oc2ccccc2cc1-c1ccccc1 [Compound 7, 3-Phenyl-2H-chromen-2-one]	21.7 ± 3	130 ± 11.4	>50	26.8 ± 2.9	33.7 ± 1	S	–	–	–
O=c1oc2ccccc2cc1-c1ccccc1Cl [Compound 8, 3-(2-Chlorophenyl)-2H-chromen-2-one]	-28.7 ± 4	20.7 ± 1.9	>50	–	17.6 ± 2.1	S	186 to 188	–	rank as inhibitor of HIV replication, in words (HIV-1 [1]): second more potent replication inhibitor
O=c1oc2ccccc2cc1-c1ccc(Cl)cc1 [Compound 9, 3-(4-Chlorophenyl)-2H-chromen-2-one]	33 ± 2.33	> 195	>50	–	-4.9 ± 0.8	–	190 to 192	–	–
COc1ccc(-c2cc3ccccc3oc2=O)cc1 [Compound 10, 3-(4-Methoxyphenyl)-2H-chromen-2-one]	61.2 ± 2.4	73 ± 8.6	–	73.5 ± 6.7	66.6 ± 3.4	U	141 to 143	fair inhibitory activity	fold lesser potent than 11 in the RV assay (HIV-1 [1]): 4-5 fold; anti-Tat activity and specificity, in words (HIV-1 Tat protein [4]): potent though unspecific anti-Tat activity
CSc1ccc(-c2cc3ccccc3oc2=O)cc1 [Compound 11, 3-(4-Methylsulfanylphenyl)-2H-chromen-2-one]	81.6 ± 5.6	18.2 ± 0.2	>50	77.5 ± 8.5	80.1 ± 5.6	U	157 to 159	fair inhibitory activity	inhibitory activity in the NF-κB test, in words (NF-κB [3]; 25 μM): confirmed; inhibition at 25 µM (NF-κB [3]): 84.3 ± 3%; rank as inhibitor of HIV replication, in words (HIV-1 [1]): most potent inhibitor of HIV replication; anti-Tat activity and specificity, in words (HIV-1 Tat protein [4]): potent though unspecific anti-Tat activity
O=c1oc2ccccc2cc1-c1ccc(Cl)cc1Cl [Compound 12, 3-(2,4-Dichlorophenyl)-2H-chromen-2-one]	-40.9 ± 2.3	> 172	>50	–	14.1 ± 0.6	S	226 to 228	–	–
O=c1oc2ccccc2cc1-c1ccc2c(c1)OCO2 [Compound 13, 3-(Benzo[d][1,3]dioxol-5-yl)-2H-chromen-2-one]	68.5 ± 3.4	138 ± 22.3	16.7 ± 3.4	32.8 ± 4.3	39.5 ± 2.3	S	168 to 170	fair inhibitory activity	specificity of NF-κB inhibition, in words (NF-κB [3]): specific inhibitors of the NF-κB function
COc1ccc(-c2cc3ccccc3oc2=O)cc1OC [Compound 14, 3-(3,4-Dimethoxyphenyl)-2H-chromen-2-one]	-23 ± 2.9	> 177	>50	–	-25.1 ± 5.3	–	127 to 129	–	–
COc1cc(-c2cc3ccccc3oc2=O)cc(OC)c1OC [Compound 15, 3-(3,4,5-Trimethoxyphenyl)-2H-chromen-2-one]	49.7 ± 7	62.7 ± 13.1	42.8 ± 16.2	47.6 ± 6.2	35.1 ± 3.9	U	122 to 124	fair inhibitory activity	specificity of NF-κB inhibition, in words (NF-κB [3]): unspecific
O=c1oc2cc(O)ccc2cc1-c1ccccc1 [Compound 16, 7-Hydroxy-3-phenyl-2H-chromen-2-one]	59 ± 8.2	81.4 ± 14	>50	–	17.2 ± 0.5	S	–	fair inhibitory activity	specificity of NF-κB inhibition, in words (NF-κB [3]): specific inhibitors of the NF-κB function
COc1ccc(-c2cc3cccc(O)c3oc2=O)cc1 [Compound 17, 8-Hydroxy-3-(4-methoxyphenyl)-2H-chromen-2-one]	87.8 ± 9.8	84.6 ± 12.1	>50	85.7 ± 3.4	88.3 ± 5.5	U	–	fair inhibitory activity	inhibitory activity in the NF-κB test, in words (NF-κB [3]; 25 μM): confirmed; inhibition at 25 µM (NF-κB [3]): 82.2 ± 3.1%; fold lesser potent than 11 in the RV assay (HIV-1 [1]): 4-5 fold; anti-Tat activity and specificity, in words (HIV-1 Tat protein [4]): potent though unspecific anti-Tat activity
COc1ccc2oc(=O)c(-c3ccccc3)c(O)c2c1 [Compound 18, 4-Hydroxy-6-methoxy-3-phenyl-2H-chromen-2-one]	–	186 ± 10.8	–	–	22.8 ± 3.4	S	–	–	inhibition at 50 µM (NF-κB [3]; 50 µM, 5.1 Jurkat-derived cells, TNFα): -3.5 ± 0.9%; Toxicity (%) CC50 (non-infected MT-2 cells [2]; human): >50
COc1ccc2c(O)c(-c3ccccc3)c(=O)oc2c1 [Compound 19, 4-Hydroxy-7-methoxy-3-phenyl-2H-chromen-2-one]	-4.7 ± 0.3	23.8 ± 1.7	>50	48.9 ± 3.4	55.7 ± 4.9	S	217 to 219	–	inhibition at 25 µM (NF-κB [3]): -34.3 ± 5%; anti-Tat activity and specificity, in words (HIV-1 Tat protein [4]): modest, but specific inhibition
COc1ccc2c(Cl)c(-c3ccccc3)c(=O)oc2c1 [Compound 20, 4-Chloro-7-methoxy-3-phenyl-2H-chromen-2-one]	-21.2 ± 7	> 209	18.4 ± 8.2	–	-64.4 ± 10	–	–	–	–
CC(C)=CCc1c(O)c(C(=O)C(C)C)c(O)c2c(-c3ccccc3)cc(=O)oc12 [Mesuol]	–	–	–	–	–	–	–	–	IC50 (HIV-1 [6]): 2.5 µM; Antiviral activity 5.1 + TNFα 25 µM (NF-κB [7]; 25 µM): 71.0 ± 4.8%; Antiviral activity 5.1 + TNFα 50 µM (NF-κB [7]; 50 µM): 77.9 ± 4.9%; CC50 (non-infected MT-2 cells [8]): > 4 µM; Antiviral activity Hela-Tat-luc 50 µM (HIV-1 Tat protein [9]): 71.3 ± 8.9%; HeLa-Tet-ON 50 µM (specific / unspecific) [10]: S
